Source: ChEMBL document CHEMBL1159331, “Cytotoxic prenylated xanthones and the unusual compounds anthraquinobenzophenones from Cratoxylum sumatranum” (J Nat Prod, 2002)
In brackets after ≈: the same amount, converted by molar mass. Activity calls are given as the source filed them. No cut-off for these calls is given here.

How the values were obtained:
KB = test: Cytotoxicity against human KB cells by MTT assay; type: functional, cell-based
P388 = test: In vivo antitumor activity against mouse P388 cells at 75 mg/kg, ip; type: functional, organism-based; set-up: dose 75 mg/kg

SMILES | Activity (KB) | EC50 (KB) [µg/mL] | Activity (P388)
COc1cc2c(c(O)c1C(CC(C)C)c1c(OC/C=C(\C)CCC=C(C)C)cc(O)c(C(=O)c3ccccc3)c1O)C(=O)c1c(O)cc(C)cc1C2=O (stereo not given) | inactive |  | 
COc1cc2c(c(O)c1C(CC(C)CCC=C(C)C)c1c(OC/C=C(\C)CCC=C(C)C)cc(O)c(C(=O)c3ccccc3)c1O)C(=O)c1c(O)cc(C)cc1C2=O (stereo not given) | inactive |  | 
CC(C)=CCC/C(C)=C/Cc1c(O)cc(O)c2oc3cc(O)c(CC=C(C)C)c(O)c3c(=O)c12 [CRATOXYARBORENONE A] |  | 4.3 (≈ 9.26 µM) | 
CC(C)=CCc1c(O)cc2oc3c(O)cc(O)c(CC=C(C)C)c3c(=O)c2c1O [CRATOXYARBORENONE B] |  | 1 (≈ 2.52 µM) | 
COc1cc(OC)c2oc3cc(O)c(CC=C(C)C)c(O)c3c(=O)c2c1CC=C(C)C [CRATOXYARBORENONE C] |  | 1.5 (≈ 3.53 µM) | inactive
C=C(C)C1Cc2c(cc3oc4c(O)c(O)c(O)c(CC=C(C)C)c4c(=O)c3c2O)O1 (stereo not given) [CRATOXYARBORENONE D] |  | 1.7 (≈ 4.14 µM) | 
COc1c(O)cc2c(=O)c3c(O)cc(O)c(CC=C(C)C)c3oc2c1CC=C(C)C [CRATOXYARBORENONE E] |  | 4.3 (≈ 10.5 µM) | 
COc1ccc(O)c2c(=O)c3ccc(O)cc3oc12 [CRATOXYARBORENONE F] |  | 4.1 (≈ 15.9 µM) | 
COc1cc2cc3c(c(O)c2c2c1C=CC(C)(C)O2)C(=O)CC(C)(O)C3 (stereo not given) [VISMIONE B] |  | 1.3 (≈ 3.67 µM) | 
